Molecules are shown by their SMILES. Like-named read-outs stand apart in the source and are kept apart here.

The values below come from patent US11439646B2, “Anti-proliferative agents for treating PAH” (Pfizer Inc., priority 2016, dated 2022).

The subject of one assay is rat Su5416/Hx PAH model. Kind of assay: Rat SuHx (Su5416/hypoxia)-induced PAH model (hemodynamics, histomorphometry, IHC). Format: in vivo. Here is the method: SuHx-induced Pulmonary Arterial Hypertension: Sprague-Dawley rats were obtained from Charles River Laboratories (200-300 g; vehicle control, n=5; all other groups, n=10). Rats received Semaxinib dissolved in DMSO on day 0, followed by housing in low (13%) oxygen until day 28. Sildenafil (30 mg/kg/dose; BID), Riociguat (10 mg/kg, QD) or Palbociclib (100 mg/kg; QD) was administered in vehicle (0.5% methylcellulose) from days 7-28. Terminal hemodynamic evaluations and necropsy were conducted on day 28 in a manner similar to the MCT study.
Hemodynamic measurements Su/Hx study: On day 28, animals were anesthetized via intramuscular injection of ketamine/xylazine (80/10 mg/kg). A Millar catheter was inserted into the pulmonary artery and pulmonary pressure and hemodynamics were measured as described by Stringer et al., (1981) Catheterization of the pulmonary artery in the closed-chest rat. J. Appl. Physiol. 51, 1047-1050. Hemodynamic values were calculated using the NOTOCORD-Hem software (NOTOCORD, Inc., Croissy sur Sienne, France) (CorDynamics).
Measurement of RV hypertrophy. After collection of the heart at necropsy, the atria and great vessels were removed. The RV was separated from the LV and S. The wet weights of the RV and LV+S were measured to calculate the Fulton Index.
Tissue preparation. Under anesthesia, the animals were exsanguinated, and the pulmonary circulation flushed with oxygenated (animals from Example 3 [MCT]) or heparizined (animals from Example 4 [Su5416/Hx]) saline. Trachea, lungs, and heart were removed intact from thoracic cavity and placed in ice-cold saline. Right lung lobes were removed, weighed, and immediately flash frozen in liquid nitrogen. A 10 mL syringe filled with fixative (10% NBF) with attached blunt tip needle (20 g) was used to inflate the left lung lobe and the airway was tied off to keep it consistently expanded. The left lung was then immersion fixed in 10% NBF for 48 hrs and then transferred to 70% EtOH for ≤5 days.
Histomorphometric analysis. Three, 3-5 μm thick, transverse sections of the left lung lobe were used for histomorphometric analysis. Overall disease severity scores were determined by light microscopic evaluation of hematoxylin and eosin (H&E)-stained lung sections by a board-certified veterinary pathologist. Scores ranged from 0 (absent), 1 (minimal), 2 (mild), 3 (moderate), 4 (marked) to 5 (severe) and were assigned according to the approximate percentage of the tissue affected by the tissue changes (inflammatory, degenerative, vascular and/or proliferative) characteristic of the PAH model. Average vessel wall thickness was evaluated using lung sections prepared with a modified Verhoeff-van Gieson elastin stain. Image analysis was performed using random field sampling (Visiopharm newCAST) of 10% of tissue area with observer-assisted identification of intra-acinar and pre-acinar vessels and application of a nucleator probe to measure vessel wall thickness. Fully muscularized intra-acinar vessel density was evaluated in a similar manner using dual αSMA/Ki67 IHC-stained sections and observer-assisted counting of ≥70% muscularized (i.e. SMA^+), transversely sectioned, ≤50 μm external diameter, intra-acinar vessels with an identifiable lumen. Vessel-associated Ki67^+ and pRb^+ cells were counted in αSMA/Ki67 IHC-and CD31/pRb IHC-stained lung sections, respectively, using random field sampling of 10% of tissue area and observer-assisted identification of Ki67^+ or pRb^+ cells associated with the walls (i.e. in the intima or media) of vessels 100 μm external diameter.
Immunohistochemistry. Dual α-SMA/Ki67 nuclear antigen: All IHC steps were performed on 3 μm-thick, formalin-fixed, paraffin-embedded (FFPE) sections on Leica Bond Rx automated immunohistochemistry stainer. The instrument was programmed to bake and dewax the slides. […]

The next assay relates to rat primary PASMCs. As to the kind of experiment: BrdU cell proliferation assay, rat primary PASMCs. Type of assay: cell-based. Particulars: PASMC, 24 h, 5% FBS, average of 3, FIG. 1d, read-out: IC50, proliferation of rat primary PASMCs induced by 5% FBS. Here is the method: (§1) Cell proliferation assay. Primary PASMCs and PAAFs from normal human subjects (ScienCell Research Laboratories, San Diego, Calif., USA) and rat primary PASMCs (Cell Applications, San Diego, Calif., USA) were plated in CellBIND® 96-well plates in Dulbecco's modification of Eagle's medium (DMEM) containing 5% fetal bovine serum (FBS), and serum-starved for 24 h in DMEM containing 0.1% FBS. Cells were first pre-incubated with different concentrations of palbociclib (in triplicates) for 30 minutes, and then 30 ng/ml PDGF-BB or 5% FBS was added to stimulate cell proliferation. Cells were maintained for 48 h before the proliferation rate was evaluated using the Cell Proliferation ELISA BrdU (bromodeoxyuridine) Luminescence Kit (Roche Diagnostics, Mannheim, Germany). BrdU was added to the medium 16 h before the quantification of BrdU incorporation. This procedure was use to generate data as presented in at least FIGS. 1a, 1b, 1c, and 1d. IC50 values were calculated for any given inhibitor by determining the concentration of compound needed to inhibit 50% of the response applied to the system. IC50 values were derived from the four parameter logistic equation which was fit to the compound concentration response data.

In another assay the test system is hPASMC. Kind of assay: EdU cell proliferation assay, hPASMC. Format: cell-based. Particulars: Homo sapiens, 5% FBS, N = 6, FIG. 1e, read-out: hPASMC IC50 (nM), inhibition of proliferation. Here is the method:
Alternatively, rather than using BrdU, EdU (5-ethynyl-2′-deoxyuridine) can be used. Cells were first pre-incubated with different concentrations of the CDK inhibitor for 30 minutes, and then 5% FBS was added to stimulate cell proliferation. Cells were maintained for 24 h before the proliferation rate was evaluated using EDU Click-iT EdU Alexa Fluor® 647 HCS Assay (Thermofisher Scientific, USA). EdU was added to the medium 16 h before the quantification of EdU incorporation. Proliferation was quantified by scanning the 96-well plates using automated high content imaging platform equipped with appropriate fluorescence microscopic filters for DAPI (4′,6-Diamidino-2-Phenylindole) or Hoechst stain and Cyanine5 dyes as part of the Click-iT assay. Proliferating EdU positive cells detected at Cyanine5 were quantified and normalized to total cell number per well where the total cell number per cell was identified by DAPI or Hoechst signal. The % effect was then calculated:
The average (avg) amount (amt) of proliferating cells per concentration of CDK inhibitor with FBS present.
The minimum amount of proliferation (min amt of prolif'n) is based on cell numbers in the wells where FBS is not added and no CDK inhibitor is present.
The maximum amount of proliferation (max amt of prolif'n) is based on cell numbers in the wells where FBS is added and no CDK inhibitor is present.

The next assay deals with human primary PASMCs. Kind of assay: BrdU cell proliferation assay, human primary PASMCs. Particulars: PASMC. Format: cell-based. As to the method: as §1
[1] abbreviates: days 7 to 28, score scale 0-5, FIG. 4g.

In the case of `CC(=O)c1c(C)c2cnc(Nc3ccc(N4CCNCC4)cn3)nc2n(C2CCCC2)c1=O` [Palbociclib, 6-acetyl-8-cyclopentyl-5-methyl-2-{[5-(piperazin-1-yl)pyridin-2yl]amino}pyrido[2,3-d]pyrimidin-7(8H)-one], the “vessel-associated Ki67+ cells in the pulmonary vasculature (IHC)” value in the assay on rat Su5416/Hx PAH model (days 7 to 28) is on record as “fully reversed”. The “vessel-associated pRb+ cells in the pulmonary vasculature (IHC)” value in the assay on rat Su5416/Hx PAH model (days 7 to 28) is reported as “fully reversed”. Moreover, in the assay with rat Su5416/Hx PAH model (days 7 to 28, FIG. 4c), the “Fulton Index” value is given as “significant reduction”. For the same molecule, the “muscularized intra-acinar vessel density relative to vehicle/Su5416/Hx group” value in the assay with rat Su5416/Hx PAH model (days 7 to 28, FIG. 4e) was determined as 0.68 x Su5416/Hx. Also, in the assay with rat Su5416/Hx PAH model (days 7 to 28, FIG. 4f), the “structural changes in the pulmonary vasculature (histomorphometry)” value was “dramatically improved and in some cases fully normalized”. The “heart weight vs vehicle/Su5416/Hx group” value with rat Su5416/Hx PAH model (days 7 to 28, FIG. 4j) is reported as “significant reduction”. Moreover, the “average vessel wall thickness, intra-acinar and pre-acinar vessels” value in the assay on rat Su5416/Hx PAH model (days 7 to 28, FIG. 4d) was “significantly reduced”. The “disease severity scores, mean” value in the assay on rat Su5416/Hx PAH model (setting [1]) is listed as 0.25. In addition, the “disease severity scores, range” value in the assay on rat Su5416/Hx PAH model (setting [1]) is 0-1.5. Besides, the “hemodynamic endpoints / hemodynamic changes” value with rat Su5416/Hx PAH model (palbociclib 100 mg/kg/day PO QD days 7 to 28) was “restored hemodynamic endpoints closer to the non-diseased control group”; in the assay on rat Su5416/Hx PAH model (palbociclib 100 mg/kg/day PO QD days 7 to 28, listed as palbociclib), “near-complete suppression”. The IC50 worked out at 27.4 nM with rat primary PASMCs; 0.3 nM with hPASMC; 7.4 nM in the assay on human primary PASMCs (30 ng/ml PDGF-BB, average of 3, FIG. 1a, read-out: IC50, PDGF-BB induced proliferation of human primary PASMCs); 7.4 nM in the assay on human primary PASMCs (5% FBS, average of 3, FIG. 1b, read-out: IC50, proliferation of human primary PASMCs induced by 5% FBS).
